Assay in all cases: biochemical
Holding throughout (design): DiscoverX KINOMEscan scanMAX competition binding panel, single concentration, percent of control; remaining binding: dose or concentration left out as unconfirmed
Holding throughout (details): KINOMEscan binding, percent of control; read-out: Table S4_SCANMAX REPORT - related to Fig. 1 / Percent Control

Test [1] deals with T1, ABL1(F317L)-phosphorylated (Homo sapiens, UniProt P00519, F317L).
T1 construct: phosphorylated

Test [2] concerns the target ALK(L1196M) (Homo sapiens, UniProt Q9UM73, L1196M).
Test [3] has as its target T2, AMPK-alpha2 (Homo sapiens, UniProt P54646).
T2 construct: gene PRKAA2

Test [4] has as its target CDK7 (Homo sapiens, UniProt P50613).
For test [5], the target named is CSF1R-autoinhibited (Homo sapiens, UniProt P07333).
Test [6] addresses EPHB6 (Homo sapiens, UniProt O15197).
The target in test [7] is FLT3(D835H) (Homo sapiens, UniProt P36888, D835H).
In test [8] the target is FLT3-autoinhibited (Homo sapiens, UniProt P36888).
Test [9] deals with KIT-autoinhibited (Homo sapiens, UniProt P10721).
For test [10], the target named is MARK4 (Homo sapiens, UniProt Q96L34).
Test [11] has as its target PIP5K1A (Homo sapiens, UniProt Q99755).
Test [12] deals with PLK3 (Homo sapiens, UniProt Q9H4B4).
For test [13], the target named is SRMS (Homo sapiens, UniProt Q9H3Y6).
The target in test [14] is STK39 (Homo sapiens, UniProt Q9UEW8).
In test [15] the target is TEC (Homo sapiens, UniProt P42680).
The target of test [16] is T3, TYK2(JH1domain-catalytic) (Homo sapiens, UniProt P29597).
T3 construct: JH1domain-catalytic

Test [17] addresses T4, VPS34 (Homo sapiens, UniProt Q8NEB9).
T4 construct: gene PIK3C3

In test [18] the target is T5, YES (Homo sapiens, UniProt P07947).
T5 construct: gene YES1

Molecules are shown by their SMILES.

T5 sequence (P07947 whole entry): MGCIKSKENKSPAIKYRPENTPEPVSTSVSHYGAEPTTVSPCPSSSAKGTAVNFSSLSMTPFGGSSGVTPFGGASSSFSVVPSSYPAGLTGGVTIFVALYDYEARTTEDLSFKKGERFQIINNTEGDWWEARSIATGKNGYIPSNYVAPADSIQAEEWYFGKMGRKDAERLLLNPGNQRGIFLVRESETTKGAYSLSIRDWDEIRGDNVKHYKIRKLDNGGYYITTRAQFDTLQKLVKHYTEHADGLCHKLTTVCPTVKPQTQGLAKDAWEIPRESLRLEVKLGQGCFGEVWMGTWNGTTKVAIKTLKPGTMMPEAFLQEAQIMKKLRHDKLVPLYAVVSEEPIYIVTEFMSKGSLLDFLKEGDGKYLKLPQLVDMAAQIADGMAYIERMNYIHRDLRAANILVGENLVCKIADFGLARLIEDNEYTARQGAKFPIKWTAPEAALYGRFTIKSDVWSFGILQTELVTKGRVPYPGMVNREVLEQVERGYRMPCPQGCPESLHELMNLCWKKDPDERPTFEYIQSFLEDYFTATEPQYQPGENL
TEC, sequence (P42680 whole entry): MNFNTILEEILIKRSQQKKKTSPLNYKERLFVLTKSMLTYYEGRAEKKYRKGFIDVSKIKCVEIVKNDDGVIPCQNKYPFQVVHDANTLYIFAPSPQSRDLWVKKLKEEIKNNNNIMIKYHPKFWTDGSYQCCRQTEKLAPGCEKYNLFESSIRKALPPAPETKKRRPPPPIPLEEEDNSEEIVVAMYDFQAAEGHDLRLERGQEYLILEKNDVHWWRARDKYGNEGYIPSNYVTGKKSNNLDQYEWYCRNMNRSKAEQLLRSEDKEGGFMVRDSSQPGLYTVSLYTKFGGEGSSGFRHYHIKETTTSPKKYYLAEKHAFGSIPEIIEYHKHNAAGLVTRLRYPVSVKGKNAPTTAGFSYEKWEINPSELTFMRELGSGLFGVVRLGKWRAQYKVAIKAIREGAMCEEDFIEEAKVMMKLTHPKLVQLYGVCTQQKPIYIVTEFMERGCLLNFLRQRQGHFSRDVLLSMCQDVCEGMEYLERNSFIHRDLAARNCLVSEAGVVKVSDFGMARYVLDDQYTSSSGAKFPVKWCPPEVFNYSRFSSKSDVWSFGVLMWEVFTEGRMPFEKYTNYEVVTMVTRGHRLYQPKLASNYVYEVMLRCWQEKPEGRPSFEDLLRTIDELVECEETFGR
PLK3, sequence (Q9H4B4 whole entry): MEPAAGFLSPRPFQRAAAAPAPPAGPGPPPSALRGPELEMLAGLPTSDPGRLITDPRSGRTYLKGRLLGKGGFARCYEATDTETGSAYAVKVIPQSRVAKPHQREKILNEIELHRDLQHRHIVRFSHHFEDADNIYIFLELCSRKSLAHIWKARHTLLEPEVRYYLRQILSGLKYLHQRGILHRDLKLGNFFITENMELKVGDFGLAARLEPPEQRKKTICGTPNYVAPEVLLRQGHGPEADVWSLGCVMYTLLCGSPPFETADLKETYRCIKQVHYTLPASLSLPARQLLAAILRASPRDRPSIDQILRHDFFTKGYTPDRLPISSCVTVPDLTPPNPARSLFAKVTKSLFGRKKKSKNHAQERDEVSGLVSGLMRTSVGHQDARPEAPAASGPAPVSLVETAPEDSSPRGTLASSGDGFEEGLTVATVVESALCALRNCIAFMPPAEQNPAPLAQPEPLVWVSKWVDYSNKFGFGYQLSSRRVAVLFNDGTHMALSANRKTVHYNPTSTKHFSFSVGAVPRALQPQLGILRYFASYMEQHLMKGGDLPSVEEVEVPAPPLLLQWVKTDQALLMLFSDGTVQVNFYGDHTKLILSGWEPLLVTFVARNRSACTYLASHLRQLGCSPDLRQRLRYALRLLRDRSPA
SRMS, sequence (Q9H3Y6 whole entry): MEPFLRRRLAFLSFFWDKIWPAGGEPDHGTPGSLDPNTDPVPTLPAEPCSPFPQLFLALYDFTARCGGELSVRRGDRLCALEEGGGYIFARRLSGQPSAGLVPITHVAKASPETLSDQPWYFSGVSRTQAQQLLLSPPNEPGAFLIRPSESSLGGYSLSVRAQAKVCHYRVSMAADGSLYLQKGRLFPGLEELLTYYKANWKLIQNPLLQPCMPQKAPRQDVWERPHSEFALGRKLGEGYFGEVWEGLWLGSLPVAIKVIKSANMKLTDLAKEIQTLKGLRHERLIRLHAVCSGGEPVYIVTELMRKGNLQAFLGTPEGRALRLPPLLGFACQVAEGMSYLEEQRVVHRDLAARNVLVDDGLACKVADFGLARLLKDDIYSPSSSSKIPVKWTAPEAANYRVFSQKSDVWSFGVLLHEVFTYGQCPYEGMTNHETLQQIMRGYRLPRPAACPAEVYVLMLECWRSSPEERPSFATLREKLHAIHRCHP
CSF1R-autoinhibited, sequence (P07333 whole entry): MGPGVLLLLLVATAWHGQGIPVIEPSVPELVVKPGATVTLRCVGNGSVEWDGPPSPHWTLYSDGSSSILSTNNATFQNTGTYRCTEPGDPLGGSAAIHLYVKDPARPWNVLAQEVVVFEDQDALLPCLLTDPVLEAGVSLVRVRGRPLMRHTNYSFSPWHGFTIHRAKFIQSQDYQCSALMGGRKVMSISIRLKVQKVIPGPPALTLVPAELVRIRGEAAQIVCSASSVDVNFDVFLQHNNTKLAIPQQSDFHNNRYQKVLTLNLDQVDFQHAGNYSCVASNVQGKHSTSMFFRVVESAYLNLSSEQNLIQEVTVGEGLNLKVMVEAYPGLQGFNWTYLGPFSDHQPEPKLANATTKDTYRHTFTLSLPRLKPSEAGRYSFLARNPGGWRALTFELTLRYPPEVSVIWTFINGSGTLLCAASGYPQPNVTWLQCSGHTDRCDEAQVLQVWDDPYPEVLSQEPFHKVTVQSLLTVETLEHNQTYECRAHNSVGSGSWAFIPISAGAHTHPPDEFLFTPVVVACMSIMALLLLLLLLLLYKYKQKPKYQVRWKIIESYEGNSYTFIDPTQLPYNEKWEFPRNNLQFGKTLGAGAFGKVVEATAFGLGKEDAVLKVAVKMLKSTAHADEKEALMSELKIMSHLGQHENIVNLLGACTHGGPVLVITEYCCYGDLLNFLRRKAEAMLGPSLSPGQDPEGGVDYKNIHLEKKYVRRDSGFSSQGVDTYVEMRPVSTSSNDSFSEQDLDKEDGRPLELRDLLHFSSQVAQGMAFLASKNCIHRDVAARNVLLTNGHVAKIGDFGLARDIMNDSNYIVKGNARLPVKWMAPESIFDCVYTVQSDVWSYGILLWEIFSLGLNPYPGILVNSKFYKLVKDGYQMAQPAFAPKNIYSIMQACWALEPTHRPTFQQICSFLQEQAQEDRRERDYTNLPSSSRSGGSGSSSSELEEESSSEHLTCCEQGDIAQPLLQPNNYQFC
T4 sequence (Q8NEB9 whole entry): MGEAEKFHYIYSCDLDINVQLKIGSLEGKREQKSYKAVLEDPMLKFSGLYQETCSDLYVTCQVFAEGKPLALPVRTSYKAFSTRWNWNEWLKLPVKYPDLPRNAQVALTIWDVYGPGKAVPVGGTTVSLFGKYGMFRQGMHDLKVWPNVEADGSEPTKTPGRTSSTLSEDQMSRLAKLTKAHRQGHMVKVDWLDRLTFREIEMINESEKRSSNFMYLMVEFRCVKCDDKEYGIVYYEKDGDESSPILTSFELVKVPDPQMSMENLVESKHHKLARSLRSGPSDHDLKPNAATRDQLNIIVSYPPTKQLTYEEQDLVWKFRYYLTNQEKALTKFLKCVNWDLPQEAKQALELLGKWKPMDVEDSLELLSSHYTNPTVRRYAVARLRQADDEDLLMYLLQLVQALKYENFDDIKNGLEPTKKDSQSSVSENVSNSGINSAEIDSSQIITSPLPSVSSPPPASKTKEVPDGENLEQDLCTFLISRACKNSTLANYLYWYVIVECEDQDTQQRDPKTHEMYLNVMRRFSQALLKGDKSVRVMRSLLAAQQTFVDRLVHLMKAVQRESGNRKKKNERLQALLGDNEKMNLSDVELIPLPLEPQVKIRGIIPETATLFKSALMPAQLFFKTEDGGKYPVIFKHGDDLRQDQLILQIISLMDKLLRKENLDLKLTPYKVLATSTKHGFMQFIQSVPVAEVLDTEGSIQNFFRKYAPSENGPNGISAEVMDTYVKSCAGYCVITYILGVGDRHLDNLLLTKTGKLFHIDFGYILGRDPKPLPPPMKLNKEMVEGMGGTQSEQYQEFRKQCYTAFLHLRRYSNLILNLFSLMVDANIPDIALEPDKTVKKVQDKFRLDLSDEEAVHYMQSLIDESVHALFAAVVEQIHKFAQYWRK
T2 sequence (P54646 whole entry): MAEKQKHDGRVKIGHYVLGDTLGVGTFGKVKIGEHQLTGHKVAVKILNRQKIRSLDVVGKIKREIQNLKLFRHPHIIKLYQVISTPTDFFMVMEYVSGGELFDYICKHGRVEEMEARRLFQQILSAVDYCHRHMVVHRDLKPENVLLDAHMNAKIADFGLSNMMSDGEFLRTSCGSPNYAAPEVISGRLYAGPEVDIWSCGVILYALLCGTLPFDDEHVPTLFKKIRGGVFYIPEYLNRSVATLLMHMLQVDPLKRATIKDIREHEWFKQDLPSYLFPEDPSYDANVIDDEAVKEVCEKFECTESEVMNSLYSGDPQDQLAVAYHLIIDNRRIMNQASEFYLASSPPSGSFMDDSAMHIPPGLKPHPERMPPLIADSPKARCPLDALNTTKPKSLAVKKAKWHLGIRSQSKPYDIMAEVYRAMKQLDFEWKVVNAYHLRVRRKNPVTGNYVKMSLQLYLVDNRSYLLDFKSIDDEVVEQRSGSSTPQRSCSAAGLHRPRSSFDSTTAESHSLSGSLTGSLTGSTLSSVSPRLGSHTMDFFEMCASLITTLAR

As to `c1ccc2c(c1)Sc1ccccc1N2CCN1CCOCC1` [J54], the remaining binding in test [1] turned out to be 99%; in test [2], 100%; in test [3], 100%; in test [4], 74%; in test [5], 85%; in test [6], 74%. Also, the remaining binding stood at 100% in test [7]; 100% in [8]; 100% in test [9]; 100% in test [10]; 46% in test [11]; 100% in [12]. The remaining binding in [13] turned out to be 100%; in [14], 100%; in test [15], 100%; in [16], 100%; in test [17], 86%; in [18] it was 100%.
